Among the test systems are A498; A549; ACHN; COLO 205; DU-145; HCC 2998; HCT-15; HL-60; HOP-62; HT-29; IGROV-1; MCF7; Malme-3M; NCI/ADR-RES; SK-MEL-28; SK-MEL-2; SK-OV-3; SNB-19; SW-620; UO-31.
Common to all, as to assay: growth of human tumour cells (NCI), 48 h

Each structure is given as a SMILES string.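 All cell lines were grown in 96-well plates and treated with compound for 48 hours. At the GI50, growth is halved.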 Calls of active or inactive are those of the source. No stated cut-off is given here; in the data, active = GI50 up to about 1.1 µM and inactive = higher. Some results are limits rather than exact numbers.

Take `Oc1ccccc1CNCc1ccccc1O`: the GI50 was > 100 µM (inactive) in the experiment with A498; > 100 µM (inactive) in the experiment on A549; > 100 µM (inactive) in the experiment on ACHN; 34 µM (inactive) in the experiment with COLO 205; > 100 µM (inactive) in the experiment with DU-145; 19.2 µM (inactive) in the experiment with HCC 2998. Further, the GI50 in the experiment with HCT-15 is > 100 µM; in the experiment on HL-60 it was > 100 µM (inactive); in the experiment on HOP-62 it was > 100 µM (inactive); in the experiment on HT-29, > 100 µM (inactive); in the experiment with IGROV-1 it was > 100 µM (inactive); with MCF7, > 100 µM (inactive). The GI50 in the experiment with Malme-3M, in the experiment with NCI/ADR-RES, in the experiment with SK-MEL-28, with SK-MEL-2, in the experiment on SK-OV-3 and with SNB-19 was > 100 µM (inactive) throughout. In addition, the GI50 in the experiment with SW-620 is > 100 µM (inactive); in the experiment with UO-31, 90.2 µM (inactive).
For the compound `Cc1ccc(S(=O)(=O)ON2C(=O)c3c(N)c(C#N)c(-c4ccccc4)c(-c4ccccc4)c3C2=O)cc1`, the GI50 in the experiment with A498 was 20 µM (inactive); in the experiment with A549, 19.4 µM (inactive); with ACHN, 16.4 µM (inactive); in the experiment with COLO 205, 17.3 µM (inactive); in the experiment on DU-145, 25.9 µM (inactive); with HCC 2998, 31.2 µM (inactive). The GI50 with HCT-15 was 17.2 µM; in the experiment with HL-60, 2.7 µM (inactive); with HT-29, 19.1 µM (inactive); with IGROV-1, 15.8 µM (inactive); in the experiment on MCF7, 16 µM (inactive); in the experiment with Malme-3M, 21.5 µM (inactive). Also, the GI50 was 23.4 µM (inactive) in the experiment on NCI/ADR-RES; 15.2 µM (inactive) in the experiment on SK-MEL-28; 17.1 µM (inactive) with SK-MEL-2; 16.2 µM (inactive) in the experiment with SK-OV-3; 24 µM (inactive) with SNB-19; 14.6 µM (inactive) in the experiment with SW-620.
Regarding `CN(C)CCCn1c(Cc2ccc(Cl)cc2)nc2cc(C(F)(F)F)ccc21`, the GI50 was 12.7 µM (inactive) in the experiment on A498; 18.2 µM (inactive) in the experiment with A549; 13.2 µM (inactive) with ACHN; 10.7 µM (inactive) in the experiment with COLO 205; 14.1 µM (inactive) with DU-145; 2 µM (inactive) in the experiment with HCC 2998. The GI50 in the experiment with HCT-15 was 17.1 µM; with HL-60 it was 29.6 µM (inactive); in the experiment with HOP-62, 15.2 µM (inactive); in the experiment with HT-29, 14.6 µM (inactive); in the experiment on IGROV-1 it was 13.1 µM (inactive); in the experiment on MCF7 it was 14.5 µM (inactive). The GI50 was 11 µM (inactive) in the experiment on Malme-3M; 15.7 µM (inactive) with NCI/ADR-RES; 17.9 µM (inactive) in the experiment on SK-MEL-28; 16.9 µM (inactive) in the experiment on SK-MEL-2; 14.4 µM (inactive) in the experiment on SK-OV-3; 16.5 µM (inactive) with SNB-19. The GI50 with SW-620 is 23.4 µM (inactive); with UO-31, 0.301 µM (active).
For `Cc1nc(-c2ccccc2)cn2c1nc1ccccc12`, the GI50 was 15.3 µM (inactive) in the experiment on A498; 19.4 µM (inactive) in the experiment on A549; 21.7 µM (inactive) with ACHN; 37.9 µM (inactive) with COLO 205; 31.8 µM (inactive) in the experiment on DU-145; 51.4 µM (inactive) in the experiment with HCC 2998. The GI50 in the experiment with HCT-15 was 16.4 µM; with HL-60, 67 µM (inactive); in the experiment on HOP-62, 20.9 µM (inactive); in the experiment with HT-29, 24.3 µM (inactive); with IGROV-1 it was 19.9 µM (inactive); in the experiment on MCF7 it was 2.8 µM (inactive). Besides, the GI50 is 23.9 µM (inactive) with Malme-3M; 20.9 µM (inactive) in the experiment with NCI/ADR-RES; 30.5 µM (inactive) in the experiment with SK-MEL-28; 20.2 µM (inactive) in the experiment with SK-MEL-2; 6.32 µM (inactive) in the experiment on SK-OV-3; 29.5 µM (inactive) with SNB-19. The GI50 in the experiment on SW-620 is 27.7 µM (inactive); in the experiment with UO-31, 13.6 µM (inactive).
With `C/C(=N\O)c1cccc[n+]1Cc1ccccc1`, the GI50 in the experiment with A498, in the experiment with A549, in the experiment with ACHN, in the experiment with COLO 205, with DU-145 and in the experiment on HCC 2998 was > 100 µM (inactive) each time. Also, the GI50 is > 100 µM with HCT-15; > 100 µM (inactive) in the experiment on HL-60; > 100 µM (inactive) in the experiment with HOP-62; > 100 µM (inactive) with HT-29; > 100 µM (inactive) with IGROV-1; > 100 µM (inactive) in the experiment on MCF7. The GI50 in the experiment on Malme-3M, in the experiment on NCI/ADR-RES, with SK-MEL-28, in the experiment with SK-MEL-2, with SK-OV-3 and with SNB-19 was > 100 µM (inactive) throughout. Besides, the GI50 in the experiment with SW-620 and with UO-31 was > 100 µM (inactive) in each case.
As for `COc1cc(/C=C2\C[C@H]3[C@@H]4CCC5=CC(=O)CC[C@]5(C)[C@H]4CC[C@]3(C)C2=O)cc(OC)c1OC`, the GI50 in the experiment on A498 is 17.7 µM (inactive); in the experiment with A549, 4.15 µM (inactive); in the experiment on ACHN, 9.16 µM (inactive); with COLO 205 it was 4.32 µM (inactive); in the experiment on DU-145 it was 19.5 µM (inactive); with HCC 2998, 15 µM (inactive). The GI50 in the experiment with HCT-15 was 4.82 µM; in the experiment with HL-60 it was 3.39 µM (inactive); with HOP-62, 12.8 µM (inactive); in the experiment with HT-29 it was 5.82 µM (inactive); in the experiment on IGROV-1 it was 8.99 µM (inactive); in the experiment with MCF7, 3.56 µM (inactive). Further, the GI50 with Malme-3M was 11.4 µM (inactive); in the experiment with NCI/ADR-RES, 3.86 µM (inactive); with SK-MEL-28, 15.9 µM (inactive); with SK-MEL-2, 7.19 µM (inactive); in the experiment with SK-OV-3 it was 29.4 µM (inactive); with SNB-19, 30.3 µM (inactive). In addition, the GI50 with SW-620 is 8.61 µM (inactive); with UO-31, 2.72 µM (inactive).
In the case of `COc1ccc(/C=C/c2sc3ccccc3[n+]2CCCCI)cc1OC`, the GI50 with A498 is > 10 µM (inactive); in the experiment on A549 it was > 10 µM (inactive); with ACHN it was > 10 µM (inactive); in the experiment with DU-145, > 10 µM (inactive); in the experiment on HCC 2998, > 10 µM (inactive); in the experiment on HCT-15, > 10 µM. Besides, the GI50 was 4.46 µM (inactive) in the experiment on HL-60; > 10 µM (inactive) with HOP-62; > 10 µM (inactive) in the experiment with HT-29; > 10 µM (inactive) in the experiment with IGROV-1; > 10 µM (inactive) in the experiment on MCF7; 3.01 µM (inactive) in the experiment on Malme-3M. Besides, the GI50 in the experiment on NCI/ADR-RES is > 10 µM (inactive); in the experiment with SK-MEL-28, > 10 µM (inactive); in the experiment on SK-MEL-2 it was 3.61 µM (inactive); in the experiment on SK-OV-3, > 10 µM (inactive); in the experiment on SNB-19, > 10 µM (inactive); in the experiment on SW-620, 7.01 µM (inactive). For the same compound, the GI50 in the experiment on UO-31 was > 10 µM (inactive).
On to `O=C(O)CC(NC(=O)CP(=O)(O)O)C(=O)O` (stereo unspecified), for which the GI50 was 2470 µM (inactive) in the experiment on A498; 47.4 µM (inactive) with A549; 711 µM (inactive) in the experiment on ACHN; 558 µM (inactive) with COLO 205; 933 µM (inactive) in the experiment with DU-145; 7930 µM (inactive) in the experiment on HCC 2998. The GI50 in the experiment with HCT-15 is 146 µM; with HL-60 it was 283 µM (inactive); in the experiment with HOP-62, 313 µM (inactive); in the experiment with HT-29 it was 185 µM (inactive); in the experiment with IGROV-1, 335 µM (inactive); in the experiment on MCF7, 381 µM (inactive). In addition, the GI50 in the experiment on Malme-3M is 2360 µM (inactive); with NCI/ADR-RES, 1020 µM (inactive); in the experiment with SK-MEL-2, 2470 µM (inactive); in the experiment on SK-OV-3 it was 5730 µM (inactive); with SNB-19, 103 µM (inactive); in the experiment with SW-620, 285 µM (inactive). In addition, in the experiment on UO-31, the GI50 was 690 µM (inactive).

The values are drawn from ChEMBL document CHEMBL1201862, “PubChem BioAssay data set” (2004).
